These results are taken from patent US8551984B2, “Aminopyrimidines as SYK inhibitors” (Merck Sharp & Dohme Corp., priority 2009, dated 2013).

Bounds are passed on as bounds.

For the first experiment, the target named is recombinant human SYK (GST-hSYK fusion protein) (Homo sapiens, UniProt P43405). In words: biochemical. The note with it: rhSYK Activity, Table 54D.
Excerpt: Homogeneous Time-Resolved Fluorescence (HTRF) Assay for the Recombinant Human SYK Enzyme:
The term IC50 denotes the concentration at which inhibition is half-maximal. Regarding `Cc1cc(Nc2nccc(C(F)(F)F)n2)cc(-c2cnc(C3(O)CCCN(C(=O)CO)CC3)s2)c1` (stereo not shown) [Example 54D-121], the half-inhibitory concentration (IC50) was under 100 nM.

The same experiment, now with this note: rhSYK Activity, Table 54E.
Consider `Cc1cc(Nc2nccc(C(F)(F)F)n2)cc(-c2cnc([C@]3(O)CC[C@@H](NC(=O)[C@@H](C)O)CC3)s2)c1` [Example 54E-1], for which the IC50 was under 100 nM. In the case of `Cc1cc(Nc2nccc(C(F)(F)F)n2)cc(-c2cnc(C3(O)CCC(NC(=O)CC(N)=O)CC3)s2)c1` (stereo not shown) [Example 54E-3], the IC50 was under 100 nM.

For the compound `Cc1cc(Nc2nccc(C(F)(F)F)n2)cc(-c2cnc([C@]3(O)CC[C@@H](NC(=O)c4ncc[nH]4)CC3)s2)c1` [Example 54E-4], the IC50 is under 100 nM.

On to `Cc1cc(Nc2nccc(C(F)(F)F)n2)cc(-c2cnc([C@]3(O)CC[C@@H](NC(=O)c4c[nH]cn4)CC3)s2)c1` [Example 54E-5], for which the 50% inhibitory concentration (IC50) is under 100 nM.

For the compound `Cc1cc(Nc2nccc(C(F)(F)F)n2)cc(-c2cnc([C@]3(O)CC[C@@H](NC(=O)c4c[nH]nn4)CC3)s2)c1` [Example 54E-6], the IC50 is under 100 nM.

As to `Cc1cc(Nc2nccc(C(F)(F)F)n2)cc(-c2cnc(C3(O)CCC(NC(=O)C4CC(O)C4)CC3)s2)c1` (stereo not shown) [Example 54E-7], the IC50 is under 100 nM.

Take `Cc1cc(Nc2nccc(C(F)(F)F)n2)cc(-c2cnc(C3(O)CCC(NC(=O)CCC(N)=O)CC3)s2)c1` (stereo not shown) [Example 54E-8]: the IC50 was under 100 nM. For `Cc1cc(Nc2nccc(C(F)(F)F)n2)cc(-c2cnc([C@]3(O)CC[C@@H](NC(=O)c4ccccc4)CC3)s2)c1` [Example 54E-9], the IC50 was under 100 nM. For `Cc1cc(Nc2nccc(C(F)(F)F)n2)cc(-c2cnc([C@]3(O)CC[C@@H](NC(=O)Cc4c[nH]cn4)CC3)s2)c1` [Example 54E-10], the half-maximal inhibitory concentration (IC50) was under 100 nM. For `Cc1cc(Nc2nccc(C(F)(F)F)n2)cc(-c2cnc(C3(O)CCC(NC(=O)Cn4cncn4)CC3)s2)c1` (stereo not shown) [Example 54E-11], the IC50 was under 100 nM.

On to `Cc1cc(Nc2nccc(C(F)(F)F)n2)cc(-c2cnc([C@]3(O)CC[C@@H](NC(=O)Cn4ccnn4)CC3)s2)c1` [Example 54E-12], for which the IC50 is under 100 nM. With `Cc1cc(Nc2nccc(C(F)(F)F)n2)cc(-c2cnc(C3(O)CCC(NC(=O)Cn4cnnn4)CC3)s2)c1` (stereo not shown) [Example 54E-13], the IC50 is under 100 nM.

For the compound `Cc1cc(Nc2nccc(C(F)(F)F)n2)cc(-c2cnc([C@]3(O)CC[C@@H](NC(=O)C4CCCCC4)CC3)s2)c1` [Example 54E-14], the IC50 is under 100 nM. Same read-out and setting: the same measure for `Cc1cc(Nc2nccc(C(F)(F)F)n2)cc(-c2cnc(C3(O)CCC(NC(=O)C4CNC(=O)N4)CC3)s2)c1` (stereo not shown) [Example 54E-15]: under 100 nM. Still for that read-out and setting: then `Cc1cc(Nc2nccc(C(F)(F)F)n2)cc(-c2cnc(C3(O)CCC(NC(=O)C4CCCCO4)CC3)s2)c1` (stereo not shown) [Example 54E-16], with under 100 nM; and `Cc1cc(Nc2nccc(C(F)(F)F)n2)cc(-c2cnc(C3(O)CCC(NC(=O)CC4CCCO4)CC3)s2)c1` (stereo not shown) [Example 54E-17], with under 100 nM. Regarding `Cc1cc(Nc2nccc(C(F)(F)F)n2)cc(-c2cnc(C3(O)CCC(NC(=O)C(C)(CO)CO)CC3)s2)c1` (stereo not shown) [Example 54E-20], the IC50 is under 100 nM. For `Cc1cc(Nc2nccc(C(F)(F)F)n2)cc(-c2cnc([C@]3(O)CC[C@@H](NC(=O)Cc4ccccn4)CC3)s2)c1` [Example 54E-21], the IC50 was under 100 nM.

Turning to `Cc1cc(Nc2nccc(C(F)(F)F)n2)cc(-c2cnc([C@]3(O)CC[C@@H](NC(=O)CS(C)(=O)=O)CC3)s2)c1` [Example 54E-22], the IC50 is under 100 nM. Take `Cc1cc(Nc2nccc(C(F)(F)F)n2)cc(-c2cnc([C@]3(O)CC[C@@H](NC(=O)Cc4ncccn4)CC3)s2)c1` [Example 54E-23]: the half-inhibitory concentration (IC50) was under 100 nM. Take `Cc1cc(Nc2nccc(C(F)(F)F)n2)cc(-c2cnc([C@]3(O)CC[C@@H](NC(=O)c4ccc(O)cn4)CC3)s2)c1` [Example 54E-24]: the IC50 is under 100 nM. On the same count and under the same terms, then `Cc1cc(Nc2nccc(C(F)(F)F)n2)cc(-c2cnc(C3(O)CCC(NC(=O)c4cccc(O)n4)CC3)s2)c1` (stereo not shown) [Example 54E-25], with under 100 nM; and `Cc1cc(Nc2nccc(C(F)(F)F)n2)cc(-c2cnc([C@]3(O)CC[C@@H](NC(=O)CCc4cn[nH]c4)CC3)s2)c1` [Example 54E-26], with under 100 nM. For `Cc1cc(Nc2nccc(C(F)(F)F)n2)cc(-c2cnc(C3(O)CCC(NC(=O)CCn4cncn4)CC3)s2)c1` (stereo not shown) [Example 54E-27], the IC50 is under 100 nM.

As for `Cc1cc(Nc2nccc(C(F)(F)F)n2)cc(-c2cnc(C3(O)CCC(NC(=O)C4CCCC(=O)N4)CC3)s2)c1` (stereo not shown) [Example 54E-28], the IC50 was under 100 nM. As for `Cc1cc(Nc2nccc(C(F)(F)F)n2)cc(-c2cnc(C3(O)CCC(NC(=O)CC4CCOCC4)CC3)s2)c1` (stereo not shown) [Example 54E-29], the IC50 is under 100 nM. On the same count and under the same terms, the same measure for `Cc1cc(Nc2nccc(C(F)(F)F)n2)cc(-c2cnc(C3(O)CCC(NC(=O)C(O)C(F)(F)F)CC3)s2)c1` (stereo not shown) [Example 54E-30]: under 100 nM; for `Cc1cc(Nc2nccc(C(F)(F)F)n2)cc(-c2cnc(C3(O)CCC(NC(=O)CCC(=O)N(C)C)CC3)s2)c1` (stereo not shown) [Example 54E-31]: under 100 nM; for `C#Cc1ccc(C(=O)NC2CCC(O)(c3ncc(-c4cc(C)cc(Nc5nccc(C(F)(F)F)n5)c4)s3)CC2)cc1` (stereo not shown) [Example 54E-32]: under 100 nM. For `Cc1cc(Nc2nccc(C(F)(F)F)n2)cc(-c2cnc([C@]3(O)CC[C@@H](NC(=O)c4ccc(C#N)cc4)CC3)s2)c1` [Example 54E-33], the IC50 is under 100 nM. `Cc1cc(Nc2nccc(C(F)(F)F)n2)cc(-c2cnc(C3(O)CCC(NC(=O)c4cc(O)ccc4F)CC3)s2)c1` (stereo not shown) [Example 54E-35]: the half-inhibitory concentration (IC50) was under 100 nM. On the same count and under the same terms, then `Cc1cc(Nc2nccc(C(F)(F)F)n2)cc(-c2cnc([C@]3(O)CC[C@@H](NC(=O)c4ccc(O)c(F)c4)CC3)s2)c1` [Example 54E-36], with under 100 nM; and `Cc1cc(Nc2nccc(C(F)(F)F)n2)cc(-c2cnc(C3(O)CCC(NC(=O)CC(N)C(F)(F)F)CC3)s2)c1` (stereo not shown) [Example 54E-37], with under 100 nM; and `COC(=O)C1CCC(C(=O)NC2CCC(O)(c3ncc(-c4cc(C)cc(Nc5nccc(C(F)(F)F)n5)c4)s3)CC2)CC1` (stereo not shown) [Example 54E-38], with under 100 nM.

The same experiment, now with this note: rhSYK Activity, Table 56.
Take `Cc1cc(Nc2nccc(C)n2)cc(-c2cnc(C3(O)CCC3)s2)c1` [Example 56-1]: the IC50 was under 100 nM. Take `CCc1ccnc(Nc2cc(C)cc(-c3cnc(C4(O)CCC4)s3)c2)n1` [Example 56-2]: the IC50 was under 100 nM. The same measure, in the same setting: then `Cc1cc(Nc2nccc(C3CC3)n2)cc(-c2cnc(C3(O)CCC3)s2)c1` [Example 56-3], with under 100 nM.

The experiment is the same for the next values; noted with them: rhSYK Activity, Table 61B.
On to `Cc1cc(Nc2nccc(C(F)(F)F)n2)cc(-c2cnc(C3(N)CCC3)s2)c1` [Example 61B-1, N-{3-[2-(1-aminocyclobutyl)-1,3-thiazol-5-yl]-5-methylphenyl}-4-(trifluoromethyl)pyrimidin-2-amine], for which the IC50 was under 100 nM. Same read-out and setting: the same measure for `Cc1cc(Nc2nccc(C(F)(F)F)n2)cc(-c2cnc(C3(NS(=O)(=O)CC(F)(F)F)CCC3)s2)c1` [Example 61B-2]: under 100 nM; for `Cc1cc(Nc2nccc(C(F)(F)F)n2)cc(-c2cnc(C3(NS(=O)(=O)CF)CCC3)s2)c1` [Example 61B-3]: under 100 nM. Same read-out and setting: then `Cc1cc(Nc2nccc(C(F)(F)F)n2)cc(-c2cnc(C3(NS(C)(=O)=O)CCC3)s2)c1` [Example 61B-4], with under 100 nM; and `Cc1cc(Nc2nccc(C(F)(F)F)n2)cc(-c2cnc(C3(NS(=O)(=O)C(F)(F)F)CCC3)s2)c1` [Example 61B-5], with under 100 nM. On the same count and under the same terms, the same measure for `Cc1cc(Nc2nccc(C(F)(F)F)n2)cc(-c2cnc(C3(NS(=O)(=O)CC(F)(F)F)COC3)s2)c1` [Example 61B-7]: under 100 nM; for `Cc1cc(Nc2nccc(C(F)(F)F)n2)cc(-c2cnc(C3(N[S+]([O-])C(F)F)COC3)s2)c1` (stereo not shown) [Example 61B-8]: under 100 nM. As to `CS(=O)(=O)NC1(c2ncc(-c3cccc(Nc4nccc(C(F)(F)F)n4)c3)s2)COC1` [Example 61B-9], the IC50 is under 100 nM.

For the compound `COc1nc(Nc2cc(C)cc(-c3cnc(C4(N)COC4)s3)c2)ncc1Cl` [Example 61B-10], the IC50 was under 100 nM.

Staying with this experiment, now noted: rhSYK Activity, Table 62.
In the case of `Cc1cc(Nc2ncccn2)cc(-c2cnc(C3(N)CCC3)s2)c1` [Example 62-1], the IC50 was under 100 nM. `COc1ccnc(Nc2cc(C)cc(-c3cnc(C4(N)CCC4)s3)c2)n1` [Example 62-2]: the IC50 is under 100 nM.

Still in this experiment, the particulars now being: rhSYK Activity, Table 63.
On to `Cc1cc(Nc2ncc(F)c(C)n2)cc(-c2cnc(C3(NS(N)(=O)=O)COC3)s2)c1` [Example 63-1], for which the IC50 is under 100 nM. With `COc1nc(Nc2cc(C)cc(-c3cnc(C4(NS(N)(=O)=O)COC4)s3)c2)ncc1Cl` [Example 63-2], the IC50 was under 100 nM. The same measure, in the same setting: the same measure for `Cc1cc(Nc2nccc(C(F)(F)F)n2)cc(-c2cnc(C3(NS(N)(=O)=O)CCC3)s2)c1` [Example 63-3]: under 100 nM; for `Cc1cc(Nc2nccc(C(F)(F)F)n2)cc(-c2cnc(C(NS(N)(=O)=O)(C3CC3)C3CC3)s2)c1` [Example 63-4]: under 100 nM.

Staying with this experiment, now noted: rhSYK Activity, Table 64, first part.
Regarding `Cc1cc(Nc2nccc(C(F)(F)F)n2)cc(-c2cnc(C3(NC(N)=O)COC3)s2)c1` [Example 64-1], the IC50 is under 100 nM. Regarding `Cc1cc(Nc2nccc(C3CC3)n2)cc(-c2cnc(C3(NC(N)=O)CCC3)s2)c1` [Example 64-2], the half-inhibitory concentration (IC50) was under 100 nM. For the compound `Cc1cc(Nc2ncccn2)cc(-c2cnc(C3(NC(N)=O)CCC3)s2)c1` [Example 64-3], the IC50 is under 100 nM. As for `Cc1cc(Nc2ncc(F)c(C3CC3)n2)cc(-c2cnc(C3(NC(N)=O)CCC3)s2)c1` [Example 64-6], the IC50 is under 100 nM. Turning to `NC(=O)NC1(c2ncc(-c3cc(F)cc(Nc4ncc(F)c(C5CC5)n4)c3)s2)CCC1` [Example 64-7], the IC50 is under 100 nM. On the same count and under the same terms, the same measure for `COc1nc(Nc2cc(C)cc(-c3cnc(C4(NC(N)=O)CCC4)s3)c2)ncc1Cl` [Example 64-8]: under 100 nM; for `Cc1cc(Nc2nccc(C(F)(F)F)n2)cc(-c2cnc(C3(NC(N)=O)CCNC(=O)CC3)s2)c1` (stereo not shown) [Example 64-9]: under 100 nM.

The same experiment, now with this note: rhSYK Activity, Table 64, second part (structure).
For `Cc1cc(Nc2nccc(C(F)(F)F)n2)cc(-c2cnc(C(NC(N)=O)(C3CC3)C3CC3)s2)c1` [Example 64-10], the half-maximal inhibitory concentration (IC50) is under 100 nM.
